The text below walks through data of patent publication US20260007729A1, “IM[…] VIRAL […](S)” (IMMUNEO Therapeutics GmbH, priority 2022, published 2026).

Experiment [1] deals with PBMCs from a healthy adult human. Put plainly: IFNγ ELISpot analysis of antigen peptides ex vivo. Type of experiment: cell-based. The following applies: for Activation*10 (IFNγ activity, activation values times 10): calculated by formula, neg 36.0; for Cells/100,000 cells (positive counts per 100,000 cells): cells pre-stimulated with peptide pool, 267,000 cells per well, duplicates; for Effectiveness of immunization (product of number of activated cells and activation): FIG. 11, descending order.

Experiment [2] concerns T cell CD4 and CD8 activity. As to the kind of experiment: Antigen response in mice, second trial (immunization, intracellular cytokine staining). Type of experiment: in vivo, wild-type mice (C57BL/6). Particulars: mice immunized with Pep2 C, restimulation with peptides (FIG. 9). The method, then: 3 Groups of wild-type mice (C57BL/6) consisting of 5 mice (group 2,3) and 3 mice for the negative control (group 1) were administered different vaccine candidates (as following) for evaluation.
The Groups were administered the following compositions: • a) Group 1 (no vac.): no vaccine • b) Group 2 (Pep2 C): peptide mix (60 μg per single peptide, 12 peptides selected from SEQ ID NOs: 43, 44, 46, 47, 50-58) with c-di-AMP (10 mg/dose) adjuvant • c) Group 3 (mRNA): Comirnaty mRNA vaccine (5 μg/dose)
The antigen peptide formulations in accordance with the present invention were administered subcutaneous (SC) three times in two-week intervals (see FIG. 7), the mRNA vaccine was administered intramuscular (IM) two times in a four-week interval (Group 3). After five weeks the immune response was determined, T cell CD8 activity was examined by cytokines secreted in response to stimulation with the peptide antigens were determined by intracellular cytokine staining (ICS) with Intracellular cytokine staining with IFNγ and TNFγ. Specific antibodies.

For experiment [3], the system named is peripheral blood mononuclear cells (PBMCs) from a human donor. Put plainly: Intracellular Cytokine Staining (ICS) of antigen polypeptides. Type of experiment: cell-based. The method, then: An Intracellular Cytokine Staining (ICS) assay to assess the T-cell responses induced by an antigen polypeptide in the spirit of the current invention was carried out following this experimental procedure. The experimental procedure involved several sequential steps to prepare and analyze freshly harvested peripheral blood mononuclear cells (PBMCs) from a human donor.
PBMCs were cultured in RPMI-1640 medium supplemented with 10% fetal bovine serum, penicillin-streptomycin, and L-glutamine at 37° C. with 5% CO2. After culture, the cells were divided into different experimental groups. The cells were then stimulated with the antigen peptide vaccine or a control peptide, along with appropriate cytokines and co-stimulatory molecules to facilitate T cell activation. The antigen peptide was designed to effectively stimulate both CD4 and CD8 T-cell responses.
To inhibit cytokine secretion and promote intracellular cytokine accumulation, brefeldin A was added to the stimulated cells at a concentration of 10 μg/mL, and the cells were incubated overnight. Subsequently, the cells were harvested, and staining was performed. Fluorescently labeled antibodies, including AlexaFluor 488-conjugated anti-IFNγ and APC-H7-conjugated anti-CD4, as well as Pacific Orange-conjugated anti-CD8 and a cell surface marker were added to the cells and incubated.
To facilitate antibody access to intracellular molecules, the cells were fixed and permeabilized using a fixation solution and permeabilization buffer. Intracellular cytokine staining was carried out by adding fluorescently labeled antibodies against IFNγ or other cytokines of interest. Following staining, flow cytometry analysis was performed by gating on CD4 and CD8 T cells to determine the percentage of cytokine-producing cells.
The obtained data were analyzed to compare the percentage of cytokine-producing CD4 and CD8 T cells stimulated with the antigen polypeptides to that of unstimulated CD4 and CD8 T cells or T cells stimulated with a control peptide. […]

On to “RQGTDYKHWPQIAQF (synthetic peptide used as antigen comprising at least one HLA antigen peptide) [Pep-19]”, for which the “Activation*10 (IFNγ activity, activation values times 10)” value in experiment [1] was 36.6. In addition, the “Cells/100,000 cells (positive counts per 100,000 cells)” value in experiment [1] (neg 25.8) is given as 21.3 Cells/100,000 cells.

For AATKMSECVLGQSKRVD [Pep-9], the “Activation*10 (IFNγ activity, activation values times 10)” value in experiment [1] is reported as 38.0. Besides, in experiment [1] (neg 25.8), the “Cells/100,000 cells (positive counts per 100,000 cells)” value is 22.1 Cells/100,000 cells.

In the case of TFEYVSQPFLMDLEGKQ [Pep-13], in experiment [1], the “Effectiveness of immunization (product of number of activated cells and activation)” value (shortened to “Effectiveness of immunization”) is reported as “most effective”; the “Activation*10 (IFNγ activity, activation values times 10)” value was 53.1. Besides, the “Cells/100,000 cells (positive counts per 100,000 cells)” value in experiment [1] (neg 25.8) is reported as 322.8 Cells/100,000 cells. In addition, in experiment [1] (neg 25.8, listed as Peptide 13), the “Cells/100,000 cells (positive counts per 100,000 cells)” value is reported as “especially high counts”.

Regarding AISSVLNDILSRLDKVE [Pep-10], the “Activation*10 (IFNγ activity, activation values times 10)” value in experiment [1] is listed as 34.8. For the same sequence, the “Cells/100,000 cells (positive counts per 100,000 cells)” value in experiment [1] (neg 25.8) was 17.2 Cells/100,000 cells.

Take DGYFKIYSKHTPINLV [Pep-17]: in experiment [1], the “Effectiveness of immunization” value was “most effective”; the “Activation*10 (IFNγ activity, activation values times 10)” value was 99.6. For the same sequence, in experiment [1] (neg 25.8), the “Cells/100,000 cells (positive counts per 100,000 cells)” value is on record as 249.1 Cells/100,000 cells. The “Cells/100,000 cells (positive counts per 100,000 cells)” value in experiment [1] (neg 25.8, listed as Peptide 17) is listed as “especially high counts”.

With LGKYEQYIKWPWYIWLGFIAG [Pep-15], the “Activation*10 (IFNγ activity, activation values times 10)” value in experiment [1] was 36.5. Moreover, in experiment [1] (neg 25.8), the “Cells/100,000 cells (positive counts per 100,000 cells)” value was 16.9 Cells/100,000 cells.

KDLSPRWYFYYLGTG [Pep-20]: the “Activation*10 (IFNγ activity, activation values times 10)” value in experiment [1] was 93.3. The “Cells/100,000 cells (positive counts per 100,000 cells)” value in experiment [1] (neg 25.8) was 31.5 Cells/100,000 cells.

In the case of MAYRFNGIGVTQNVLYE [Pep-7], in experiment [2], the “Single peptide-specific CD8 T cell reaction” value is on record as “caused a CD8 T cell reaction”. Moreover, in experiment [1], the “Effectiveness of immunization” value is on record as “most effective”. The “Cells/100,000 cells (positive counts per 100,000 cells)” value in experiment [1] (neg 25.8) was 41.9 Cells/100,000 cells. For the same sequence, in experiment [3] (FIG. 5, FIG. 9, groups of Table E7-1), the “CD8 / CD8+ response in ICS” value is recorded as “strong CD8+ response”. In experiment [3] (FIG. 8, groups of Table E7-1), the “CD4 response in ICS” value was “some CD4 response”. Besides, the “Individual activities in the ICS study” value in experiment [3] (single peptides) is “high individual activities”.

Regarding GKEDLKFPRGQGVPINTNSS [Pep-18], the “Activation*10 (IFNγ activity, activation values times 10)” value in experiment [1] is on record as 10.1. Besides, in experiment [1] (neg 25.8), the “Cells/100,000 cells (positive counts per 100,000 cells)” value is 24.3 Cells/100,000 cells.

With IRAAEIRASANLAATKM [Pep-21], the “Effectiveness of immunization” value in experiment [1] is “most effective”. Besides, the “Cells/100,000 cells (positive counts per 100,000 cells)” value in experiment [1] (neg 25.8) is 50.9 Cells/100,000 cells.

For the sequence GDCLGDIAARDLIC [Pep-14], the “Effectiveness of immunization” value in experiment [1] was “most effective”. In addition, the “Cells/100,000 cells (positive counts per 100,000 cells)” value in experiment [1] (neg 25.8) is 262.2 Cells/100,000 cells; in experiment [1] (neg 25.8, listed as Peptide 14), “especially high counts”.
